Reference: patent US20100041089A1, “IMPROVED METHOD FOR DETECTING CHEMICAL […]” (priority 2006, published 2010)

Test system: yeast genes (expressed mRNA)
Test: DNA chip measurement of expressed mRNA of yeast genes after culture with a toxic chemical substance
Assay type: cell-based, Saccharomyces cerevisiae S288C
Conditions: for level of expressed mRNA in the presence of chemical substance / level in the absence of chemical substance: cultured two hours with the chemical substance; for The level of expressed mRNA in the presence of chemical substance/The level of expressed mRNA in the absence of chemical substance: cultured two hours with substance
Procedure: Yeast (Saccharomyces cerevisiae S288C (a SUC2mal mel gap2 CUP1)) were cultured at 25° C. on YPD medium (yeast extract 1%, polypeptone 2%, glucose 2%). One of toxic chemical substances was added to the cell at logarithmic growth phase, and the cell was further cultured for two hours. Cell was cultured without any chemical substance in the same condition, and was used as a control. Concentrations of the chemical substances were defined to inhibit the growth of the yeast but not lead to death.
After the completion of cultivation, the culture was centrifuged to collect the cells. To the cells, sodium acetate buffer (50 mM sodium acetate, 10 mM EDTA, 1% SDS) was added, and the mixture was shaken at 65° C. for five minutes, followed by returning to room temperature, and obtaining the supernatant, which procedure was repeated two times. To the supernatant, ½ amount of a solution of phenol/chloroform (1:1) was added, and the mixture was centrifuged to give a supernatant, an equal amount of chloroform was added, and the mixture was centrifuged to give a supernatant. To the supernatant, an equal amount of isopropanol containing 0.3 M sodium acetate was added, and the mixture was allowed to stand at room temperature for 30 minutes, after which the mixture was centrifuged to give sediment of the whole RNAs. Seventy % ethanol was added to the sediment, and the mixture was again centrifuged to give sediment, which was then dried and dissolved in water. mRNA was isolated from the whole RNAs as followings. In view of the fact that a poly A chain is attached to the 3′ terminus of mRNA, a polynucleotide having a poly T structure which was immobilized on the surface of latex beads was used to trap the mRNA, and then the mRNA was washed and eluted with spine column (Oligotex-dT30<Super>mRNA Purification Kit, Takara). Reverse transcription of the mRNA was conducted with a reverse transcriptase (Super Script II Reverse Transcriptase; catalogue No. 18064-014, GibcoBRL) using fluorescence-labeled nucleotides to give cDNAs that were introduced with Cy3-dUTP or Cy5-dUTP during the reverse transcription.
The labeled cDNAs were dissolved in TE buffer (10 mM Tris-HCl/1 mM EDTA, pH 8.0), and the solution was dropped on the DNA chip containing the whole genes of yeast (DNA Chip Research Inc. Japan) so that the cDNAs were hybridized on the DNA chip at 65° C. for over 12 hours. The fluoresces intensity of the DNA chip was read with a scanner, and the ratio relative to the fluorescence intensity resulting from the absence of chemical substance was estimated as the following, which is shown in Tables 1 to 9.
In the Tables, “Intensity” indicated in the rightmost column is a value of the level of expressed mRNA of each gene in control cells as divided by the average level of the expressions of the whole genes. A gene of which mRNA level is lower in control, and is higher in cases of addition of chemical substance, is especially useful in the detection of toxic substances.
Here, when a ratio of an amount of mRNA expressed in the presence of the chemical substance to an amount of mRNA expressed in the absence of the chemical substance is two or more, then it is considered significant.

[Cl][Hg][Cl] [(3), HgCl2]
level of expressed mRNA in the presence of chemical substance / level in the absence of chemical substance (yeast gene YDR128W): 1.4 | level of expressed mRNA in the presence of chemical substance / level in the absence of chemical substance (yeast gene YDR133C): 2.9 | level of expressed mRNA in the presence of chemical substance / level in the absence of chemical substance (yeast gene YDR250C): 0.9 | level of expressed mRNA in the presence of chemical substance / level in the absence of chemical substance (yeast gene YDR278C): 0.9 | level of expressed mRNA in the presence of chemical substance / level in the absence of chemical substance (yeast gene YDR281C): 0.4 | The level of expressed mRNA in the presence of chemical substance/The level of expressed mRNA in the absence of chemical substance (yeast gene YDR330W): 1.2 | level of expressed mRNA in the presence of chemical substance / level in the absence of chemical substance (yeast gene YDR366C): 0.8 | The level of expressed mRNA in the presence of chemical substance/The level of expressed mRNA in the absence of chemical substance (yeast gene YDR411C): 1.8 | The level of expressed mRNA in the presence of chemical substance/The level of expressed mRNA in the absence of chemical substance (yeast gene YDR511W): 0.9 | The level of expressed mRNA in the presence of chemical substance/The level of expressed mRNA in the absence of chemical substance (yeast gene YDR545W): 0.6 | The level of expressed mRNA in the presence of chemical substance/The level of expressed mRNA in the absence of chemical substance (yeast gene YEL001C): 1.4 | The level of expressed mRNA in the presence of chemical substance/The level of expressed mRNA in the absence of chemical substance (yeast gene YER004W): 1.9 | The level of expressed mRNA in the presence of chemical substance/The level of expressed mRNA in the absence of chemical substance (yeast gene YER035W): 1.6 | The level of expressed mRNA in the presence of chemical substance/The level of expressed mRNA in the absence of chemical substance (yeast gene YER079W): 1.9 | The level of expressed mRNA in the presence of chemical substance/The level of expressed mRNA in the absence of chemical substance (yeast gene YER106W): 1.3 | The level of expressed mRNA in the presence of chemical substance/The level of expressed mRNA in the absence of chemical substance (yeast gene YER158C): 0.9 | The level of expressed mRNA in the presence of chemical substance/The level of expressed mRNA in the absence of chemical substance (yeast gene YER163C): 1.2 | The level of expressed mRNA in the presence of chemical substance/The level of expressed mRNA in the absence of chemical substance (yeast gene YER175C): 1.3 | The level of expressed mRNA in the presence of chemical substance/The level of expressed mRNA in the absence of chemical substance (yeast gene YFL006W): 1.6 | The level of expressed mRNA in the presence of chemical substance/The level of expressed mRNA in the absence of chemical substance (yeast gene YFL010C): 1.3 | The level of expressed mRNA in the presence of chemical substance/The level of expressed mRNA in the absence of chemical substance (yeast gene YFL024C): 1.1 | The level of expressed mRNA in the presence of chemical substance/The level of expressed mRNA in the absence of chemical substance (yeast gene YFL032W): 1.6 | level of expressed mRNA in the presence of chemical substance / level in the absence of chemical substance (yeast gene YFR026C): 1.0 | The level of expressed mRNA in the presence of chemical substance/The level of expressed mRNA in the absence of chemical substance (yeast gene YGL037C): 6.5 | The level of expressed mRNA in the presence of chemical substance/The level of expressed mRNA in the absence of chemical substance (yeast gene YGL047W): 1.6 | The level of expressed mRNA in the presence of chemical substance/The level of expressed mRNA in the absence of chemical substance (yeast gene YGL053W): 1.2 | level of expressed mRNA in the presence of chemical substance / level in the absence of chemical substance (yeast gene YGL088W): 0.9 | The level of expressed mRNA in the presence of chemical substance/The level of expressed mRNA in the absence of chemical substance (yeast gene YGL121C): 1.4 | The level of expressed mRNA in the presence of chemical substance/The level of expressed mRNA in the absence of chemical substance (yeast gene YGL199C): 1.7 | level of expressed mRNA in the presence of chemical substance / level in the absence of chemical substance (yeast gene YGR038W): 3.5 | The level of expressed mRNA in the presence of chemical substance/The level of expressed mRNA in the absence of chemical substance (yeast gene YGR101W): 1.2 | The level of expressed mRNA in the presence of chemical substance/The level of expressed mRNA in the absence of chemical substance (yeast gene YGR110W): 2.2 | The level of expressed mRNA in the presence of chemical substance/The level of expressed mRNA in the absence of chemical substance (yeast gene YGR130C): 0.6 | level of expressed mRNA in the presence of chemical substance / level in the absence of chemical substance (yeast gene YGR139W): 0.8 | The level of expressed mRNA in the presence of chemical substance/The level of expressed mRNA in the absence of chemical substance (yeast gene YGR154C): 2.2 | The level of expressed mRNA in the presence of chemical substance/The level of expressed mRNA in the absence of chemical substance (yeast gene YGR221C): 0.9 | level of expressed mRNA in the presence of chemical substance / level in the absence of chemical substance (yeast gene YGR243W): 9.4 | level of expressed mRNA in the presence of chemical substance / level in the absence of chemical substance (yeast gene YGR293C): 1.6 | level of expressed mRNA in the presence of chemical substance / level in the absence of chemical substance (yeast gene YHL006C): 0.9 | level of expressed mRNA in the presence of chemical substance / level in the absence of chemical substance (yeast gene YHR095W): 1.5 | level of expressed mRNA in the presence of chemical substance / level in the absence of chemical substance (yeast gene YHR105W): 2.4 | The level of expressed mRNA in the presence of chemical substance/The level of expressed mRNA in the absence of chemical substance (yeast gene YHR138C): 2.2 | level of expressed mRNA in the presence of chemical substance / level in the absence of chemical substance (yeast gene YHR181W): 2.4 | The level of expressed mRNA in the presence of chemical substance/The level of expressed mRNA in the absence of chemical substance (yeast gene YHR199C): 3.2 | The level of expressed mRNA in the presence of chemical substance/The level of expressed mRNA in the absence of chemical substance (yeast gene YIL023C): 2.1 | The level of expressed mRNA in the presence of chemical substance/The level of expressed mRNA in the absence of chemical substance (yeast gene YIL041W): 2.1 | The level of expressed mRNA in the presence of chemical substance/The level of expressed mRNA in the absence of chemical substance (yeast gene YIL087C): 3.4 | level of expressed mRNA in the presence of chemical substance / level in the absence of chemical substance (yeast gene YIL127C): 0.2 | level of expressed mRNA in the presence of chemical substance / level in the absence of chemical substance (yeast gene YJL017W): 3.5 | level of expressed mRNA in the presence of chemical substance / level in the absence of chemical substance (yeast gene YJL037W): 1.4 | The level of expressed mRNA in the presence of chemical substance/The level of expressed mRNA in the absence of chemical substance (yeast gene YJL057C): 1.6 | The level of expressed mRNA in the presence of chemical substance/The level of expressed mRNA in the absence of chemical substance (yeast gene YJL066C): 1.2 | The level of expressed mRNA in the presence of chemical substance/The level of expressed mRNA in the absence of chemical substance (yeast gene YJL082W): 2.4
